Measurements: the supplement of paper PMC11061612

What was measured:
Test in all cases: Bliss excess, mean over the matrix (fraction); higher = more synergy
GOTO (Neuroblastoma) = test system: GOTO (Neuroblastoma)
Procedure, shortened: (§1)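 Bliss excess equals the observed combination effect minus the expected value EA + EB − EA·EB, where EA and EB are the effects of each agent alone. Combination Emax is the second-highest inhibition within the matrix. Inhibition was scaled from CellTiter-Glo 2.0 luminescence, with 0 set by vehicle wells and 1 by blank wells, after 72 hours of two-drug dosing of cells plated in 1536-well plates.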

[1] = test system: NCI-H2405 (Lung Adenocarcinoma)
Procedure, shortened: as §1

EW-18 (Ewing's Sarcoma) = test system: EW-18 (Ewing's Sarcoma)
Procedure, shortened: as §1

[2] = test system: SCC-9 (Oral Cavity Carcinoma)
Procedure, shortened: as §1

[3] = test system: HSC-2 (Oral Cavity Carcinoma)
Procedure, shortened: as §1

[4] = test system: NCI-H513 (Other Solid Carcinomas)
Procedure, shortened: as §1

[5] = test system: LC4-1 (B-Lymphoblastic Leukemia)
Procedure, shortened: as §1

EW-13 (Ewing's Sarcoma) = test system: EW-13 (Ewing's Sarcoma)
Procedure, shortened: as §1

[6] = test system: ASH-3 (Thyroid Gland Carcinoma)
Procedure, shortened: as §1

[7] = test system: NCI-H322M (Lung Adenocarcinoma)
Procedure, shortened: as §1

BT-20 (Breast Carcinoma) = test system: BT-20 (Breast Carcinoma)
Procedure, shortened: as §1

[8] = test system: LOU-NH91 (Squamous Cell Lung Carcinoma)
Procedure, shortened: as §1

[9] = test system: H-EMC-SS (Chondrosarcoma)
Procedure, shortened: as §1

[10] = test system: VMRC-LCD (Lung Adenocarcinoma)
Procedure, shortened: as §1

[11] = test system: BV-173 (Chronic Myelogenous Leukemia)
Procedure, shortened: as §1

NH-12 (Neuroblastoma) = test system: NH-12 (Neuroblastoma)
Procedure, shortened: as §1

[12] = test system: EBC-1 (Squamous Cell Lung Carcinoma)
Procedure, shortened: as §1

[13] = test system: KINGS-1 (Low Grade Glioma)
Procedure, shortened: as §1

[14] = test system: OVISE (Ovarian Carcinoma)
Procedure, shortened: as §1

Row | SMILES | Bliss excess (GOTO (Neuroblastoma)) | Bliss excess [1] | Bliss excess (EW-18 (Ewing's Sarcoma)) | Bliss excess [2] | Bliss excess [3] | Bliss excess [4] | Bliss excess [5] | Bliss excess (EW-13 (Ewing's Sarcoma)) | Bliss excess [6] | Bliss excess [7] | Bliss excess (BT-20 (Breast Carcinoma)) | Bliss excess [8] | Bliss excess [9] | Bliss excess [10] | Bliss excess [11] | Bliss excess (NH-12 (Neuroblastoma)) | Bliss excess [12] | Bliss excess [13] | Bliss excess [14]
1 | COc1cc2c(cc1OCCCCCOc1cc3c(cc1OC)C(=O)N1C=C(C)C[C@H]1C=N3)N=C[C@@H]1CC(C)=CN1C2=O [SG3199] + O=C(c1cc(Cc2n[nH]c(=O)c3ccccc23)ccc1F)N1CCN(C(=O)C2CC2)CC1 [Olaparib] (first compound max 0.001 µM, 7x7, partner max 10 µM) | 0.0943 | -0.043 | -0.0629 | -0.0352 | -0.0751 | -0.0325 | -0.0371 | -0.0415 | -0.0232 | -0.0014 | -0.0366 | -0.0224 | -0.0812 | -0.042 | 0.0535 | 0.0343 | -0.014 | -0.0434 | -0.0431
2 | CCN(CCO)CCCOc1ccc2c(Nc3cc(CC(=O)Nc4cccc(F)c4)[nH]n3)ncnc2c1 [AZD2811] + C=CCn1c(=O)c2cnc(Nc3ccc(N4CCN(C)CC4)cc3)nc2n1-c1cccc(C(C)(C)O)n1 [AZD1775] (first compound max 1 µM, partner max 1 µM) | -0.0162 | -0.021 | -0.134 | -0.0179 | 0.0771 | -0.0195 | -0.109 | 0.0393 | -0.016 | -0.0188 | -0.0073 | -0.0257 | -0.0261 | 0.0049 | -0.0222 | -0.0012 | 0.0075 | -0.0173 | -0.0332
3 | COc1cccc(OCCCN)c1-c1cc(Nc2cnc(C#N)cn2)n[nH]1 [Prexasertib] + CN(C)CCCOc1ccc(-c2ccc3ncc4c(c3c2)n(C2CCOCC2)c(=O)n4C)cn1 [AZD0156] (first compound max 1 µM, 7x7, partner max 1 µM) | -0.0098 | -0.0037 | 0.021 | -0.0159 | -0.0532 | -0.0071 | -0.0113 | 0.0557 | 0.0014 | 0.011 | -0.026 | -0.0374 | -0.0264 | -0.0075 | -0.0676 | 0.0111 | -0.0297 | -0.0927 | 0.0209
4 | CCc1c2c(nc3ccc(O)cc13)-c1cc3c(c(=O)n1C2)COC(=O)[C@]3(O)CC [SN-38] + CN(C)CCCOc1ccc(-c2ccc3ncc4c(c3c2)n(C2CCOCC2)c(=O)n4C)cn1 [AZD0156] (first compound max 0.3 µM, 7x7, partner max 1 µM) | -0.0221 | -0.0082 | -0.0607 | 0.0484 | 0.0085 | 0.0021 | -0.0587 | -0.0589 | 0.0121 | 0.15 | 0.0684 | 0.011 | -0.0092 | -0.0338 | -0.0256 | -0.0954 | -0.0488 | -0.0185 | -0.0355
5 | COc1cccc(OCCCN)c1-c1cc(Nc2cnc(C#N)cn2)n[nH]1 [Prexasertib] + C=CCn1c(=O)c2cnc(Nc3ccc(N4CCN(C)CC4)cc3)nc2n1-c1cccc(C(C)(C)O)n1 [AZD1775] (first compound max 1 µM, partner max 1 µM) | 0.0074 | 0.032 | -0.0615 | 0.0249 | 0.178 | 0.0545 | 0.0128 | 0.0788 | 0.235 | 0.0366 | 0.0725 | 0.0332 | 0.0712 | -0.0072 | -0.0251 | 0.047 | 0.0628 | 0.072 | 0.0144
6 | Cc1cc2ncnn2cc1Nc1ncc2c(n1)n(C1CCOCC1)c(=O)n2C [AZD7648] + CCN(CCO)CCCOc1ccc2c(Nc3cc(CC(=O)Nc4cccc(F)c4)[nH]n3)ncnc2c1 [AZD2811] (first compound max 10 µM, 7x7, partner max 1 µM) | 0.0582 | -0.015 | -0.0154 | 0.0414 | 0.0999 | -0.021 | -0.114 | 0.0259 | 0.0309 | -0.0182 | -0.0432 | 0.0693 | -0.0452 | -0.0267 | -0.025 | -0.001 | 0.0147 | 0.0339 | -0.0105
7 | C=CCn1c(=O)c2cnc(Nc3ccc(N4CCN(C)CC4)cc3)nc2n1-c1cccc(C(C)(C)O)n1 [AZD1775] + O=C(c1cc(Cc2n[nH]c(=O)c3ccccc23)ccc1F)N1CCN(C(=O)C2CC2)CC1 [Olaparib] (first compound max 1 µM, partner max 10 µM) | -0.0271 | -0.0675 | -0.0742 | -0.0027 | -0.0249 | -0.0399 | 0.0226 | -0.0801 | -0.0054 | -0.0222 | -0.0681 | -0.0271 | -0.0807 | -0.0597 | 0.0184 | -0.0167 | -0.0549 | -0.0777 | -0.0084
8 | Cc1cc2ncnn2cc1Nc1ncc2c(n1)n(C1CCOCC1)c(=O)n2C [AZD7648] + C[C@@H]1COCCN1C2=NC(=NC(=C2)C3(CC3)[S@](=N)(=O)C)C4=C5C=CNC5=NC=C4 [AZD6738] (first compound max 10 µM, 7x7, partner max 10 µM) | -0.0205 | 0.0068 | -0.0133 | 0.0507 | 0.0627 | -0.0383 | 0.0469 | 0.0039 | 0.0459 | -0.0048 | 0.0399 | 0.0337 | 0.0095 | 0.0143 | -0.0194 | -0.0035 | 0.0513 | 0.0412 | 0.0508
